Laboratory results taken from ChEMBL document CHEMBL2390934, “Synthesis and evaluation of phenoxyoxazaphospholidine, phenoxyoxazaphosphinane, and benzodioxaphosphininamine sulfides and related compounds as potential anti-malarial agents” (Bioorg Med Chem Lett, 2013).
Activity calls are given as the source filed them. The calls are words filed in the database; no cut-off is given here.

tested on: Plasmodium falciparum; test: Antimalarial activity against chloroquine-resistant Plasmodium falciparum K1/Thailand infected in O positive erythrocytes assessed as parasite lactate dehydrogenase activity after 72 hrs; type: functional, organism-based; details: not given

SMILES	Activity
CCOP(=S)(NCCCCNc1ccnc2cc(Cl)ccc12)Oc1ccc(C(F)(F)F)cc1 (configuration not stated)	Active

tested on: Plasmodium falciparum; test: Antimalarial activity against Plasmodium falciparum 3D7 infected in O positive erythrocytes assessed as parasite lactate dehydrogenase activity after 72 hrs; type: functional, organism-based; details: 3D7, 72 h

SMILES	IC50
CCOP(=O)(NC(C)C)Oc1ccc2ccccc2c1 (configuration not stated)	87 µM
CC(C)CNP1(=S)OCc2cc([N+](=O)[O-])ccc2O1 (configuration not stated)	118 µM
CCOP(=S)(NC1CCCC1)Oc1ccc2ncccc2c1 (configuration not stated)	19 µM
CCOP(=O)(NC(C)C)Oc1cc(C)c([N+](=O)[O-])cn1 (configuration not stated)	25 µM
Cc1ccc(OP2(=S)NC(C)CO2)c([N+](=O)[O-])c1 (mixture of isomers)	77 µM
FC(F)(F)c1ccc(OP2(=S)OCCS2)cc1 (configuration not stated)	64 µM
CC(C)CNP1(=S)OCc2ccccc2O1 (configuration not stated)	58 µM
FC(F)(F)c1ccc(OP2(=S)NCCCO2)cc1 (configuration not stated)	62 µM
Cc1ccc(OP2(=S)NCCO2)c([N+](=O)[O-])c1 (configuration not stated)	> 128 µM
Cc1ccc(OP2(=S)NCCCO2)c([N+](=O)[O-])c1 (configuration not stated)	> 128 µM
Cc1ccc([N+](=O)[O-])cc1OP1(=S)NCCCO1 (configuration not stated)	108 µM
CCOP(=O)(NC(C)C)Oc1cc(O)ccn1 (configuration not stated)	128 µM
CCOP(=S)(NC1CCCC1)Oc1cccc2cccnc12 (configuration not stated)	25 µM
CCOP(=O)(NC(C)C)Oc1ccc(C(F)(F)F)cn1 (configuration not stated)	25 µM
Cc1cc([N+](=O)[O-])ccc1OP1(=S)NCCO1 (configuration not stated)	51 µM
Cc1ccc([N+](=O)[O-])c(OP2(=S)NCCCO2)c1 (configuration not stated)	> 128 µM

SMILES	IC50
CC(C)NP1(=S)OCc2ccccc2O1 (configuration not stated)	62 µM
Cc1cc([N+](=O)[O-])ccc1OP1(=S)NCCCO1 (configuration not stated)	128 µM
CCOP(=S)(NC(C)C)Oc1ccc(C(F)(F)F)cn1 (configuration not stated)	29 µM
CCOP(=S)(NCCCCNc1ccnc2cc(Cl)ccc12)Oc1ccc(C(F)(F)F)cc1 (configuration not stated)	0.038 µM
CCOP(=O)(NC(C)C)Oc1ccc2ccccc2c1[N+](=O)[O-] (configuration not stated)	98 µM
CCOP(=O)(NC(C)C)Oc1cc(C)ccn1 (configuration not stated)	128 µM
Cc1cc2c(c([N+](=O)[O-])c1)OP(=S)(NC(C)C)OC2 (configuration not stated)	> 128 µM
CC1COP(=S)(Oc2ccc(C(F)(F)F)cc2)N1 (racemic)	> 128 µM
NCCCCNc1ccnc2cc(Cl)ccc12	0.64 µM
CCCNP1(=S)OCc2ccccc2O1 (configuration not stated)	95 µM
CC(C)NP1(=S)OCc2cc([N+](=O)[O-])ccc2O1 (configuration not stated)	108 µM
CCOP(=O)(NC(C)C)Oc1nccc(C)c1[N+](=O)[O-] (configuration not stated)	128 µM
Cc1ccc([N+](=O)[O-])cc1OP1(=S)NCCO1 (configuration not stated)	24 µM
FC(F)(F)c1ccc(OP2(=S)NCCO2)cc1 (configuration not stated)	108 µM
CCOP(=O)(NC1CCCC1)Oc1ccc(C(F)(F)F)cn1 (configuration not stated)	23 µM
